Source: US20210353614A1, “COMPOUNDS AND USES THEREOF TO TREAT TUMORS IN A SUBJECT” (Merck Patent GMBH, priority 2018, published 2021)
Read-outs that look alike come from different tables or passages of the source.

Assays:
[1] = system: human colon cancer xenograft model SW620; experiment: CRC xenograft model, ATM inhibitors in combination with irinotecan; type: in vivo, mice
Procedure: Animals were treated with three 1-week cycles of a combination of irinotecan and the respective ATM inhibitors, or the respective monotherapy control arms. One cycle consisted of one irinotecan application (ip) at a dose of 50 mg/kg, followed by 100, and 50 mg/kg of ATMi 1, or 10 and 25 mg/kg of ATMi 2 (po) 24 h later and for four subsequent days.

colon cancer cell line [2] = experiment: GI50 of SN38 and of the combination with ATMi2; type: cell-based
colon cancer cell line [3] = experiment: Immunogenic cell death induction (calreticulin, HSP70, HSP90 surface expression, ATP and HMGB1 release, caspase-3/7); type: cell-based
Procedure: […]. The inhibitor for ATM and SN38 were tested as single agents and in combination at the concentrations of the GI50 of the combination. The GI50 of SN38 was included as a positive control for induction of immunogenic cell death. […] Cell surface expression of calreticulin, HSP70 and HSP90 was analysed by Flow Cytometry, ATP secretion by ATPlite assay Perkin Elmer, HMGB1 release by HMGB1 Elisa (IBL International) and apoptosis by Caspase-Glo 3/7 Assay Systems (measures caspase-3/7 activities).
Analyses of DAMPs (Calreticulin, HSP70, HSP90, HMGB1 and ATP) were carried out whithin the same sample. Cells were treated 24 hours after seeding and analyses performed 72 hours post-treatment. Cells were used for FACS analyses and supenatants for ATP and HMGB1 measurements. Caspase-Glo 3/7 was carried out in parallel following the same treatment schedule.
For FACS analyses, an unstained sample was used as a gating control and an isotype sample to measure unspecific antibody binding. % PE positive cells represent cells with cell surface expression of the tested marker (all markers were conjugated with PE and tested independently). ATP secretion, HMGB1 release and apoptosis were carried out accordingly to the protocols provided by the commercial supplier (data represented as the average of two independent biological repeats).

[4] = combination ATMi 2 25 mg/kg + irinotecan, d28
[5] = combination ATMi 2 25 mg/kg po + irinotecan 50 mg/kg ip, day 21

## CCc1c2c(nc3ccc(OC(=O)N4CCC(N5CCCCC5)CC4)cc13)-c1cc3c(c(=O)n1C2)COC(=O)[C@]3(O)CC [irinotecan, reference compound]
[1]; irinotecan arm, day 28
  disease status: all animals showed progressive disease

## COc1cc2ncc3c(c2cc1-c1cn(C)nc1C)n(-c1c(F)cncc1OC)c(=O)n3C [ATMi 2, 8-(1,3-Dimethyl-1H-pyrazol-4-yl)-1-(3-fluoro-5-methoxy-pyridin-4-yl)-7-methoxy-3-methyl-1,3-dihydro-imidazo[4,5-c]quinolin-2-one]
[1]; [4]
  partial responses (tumor volume >30% decrease): 2/10
  stable diseases (tumor volume change between 30% decrease and 73% increase): 3/10
[1]; combination ATMi 2 25 mg/kg + irinotecan, d28, one week after stop of treatment
  animals progression free (<73% increase in tumor volume compared to starting volume): 5/10
[1]; [5]
  decrease of mean tumor volume compared to starting volume: ~87%
  mean tumor volume: 53 mm^3
Colon cancer cell line [2]; in combination with 0.4 nM SN38, read-out: GI50 of the combination (ATMi2 concentration)
  GI50: 250 nM
Colon cancer cell line [3]; ATMi2 single agent at 250 nM, 72 hours post-treatment
  induction of immunogenic cell death: not
Colon cancer cell line [3]; combination 250 nM ATMi2 + 0.4 nM SN38, 72 hours post-treatment
  induction of immunogenic cell death: clear induction of immunogenic cell death

## CCc1c2c(nc3ccc(O)cc13)-c1cc3c(c(=O)n1C2)COC(=O)[C@]3(O)CC [SN38, reference compound]
Colon cancer cell line [2]; SN38 as single agent, read-out: GI50
  GI50: 2 nM
Colon cancer cell line [2]; in combination with 250 nM ATMi2, read-out: GI50 of the combination (SN38 concentration)
  GI50: 0.4 nM
Colon cancer cell line [3]; SN38 at its GI50 (2 nM), 72 hours post-treatment
  induction of immunogenic cell death: clear induction of immunogenic cell death
Colon cancer cell line [3]; SN38 single agent at 0.4 nM, 72 hours post-treatment
  induction of immunogenic cell death: not
